Measured values reported in ChEMBL document CHEMBL4418300, “Uses of fahd1” (2016).

Biological target: T1, Oxaloacetate tautomerase FAHD1, mitochondrial (Homo sapiens, UniProt Q6P587)
T1 sequence (Q6P587 whole entry): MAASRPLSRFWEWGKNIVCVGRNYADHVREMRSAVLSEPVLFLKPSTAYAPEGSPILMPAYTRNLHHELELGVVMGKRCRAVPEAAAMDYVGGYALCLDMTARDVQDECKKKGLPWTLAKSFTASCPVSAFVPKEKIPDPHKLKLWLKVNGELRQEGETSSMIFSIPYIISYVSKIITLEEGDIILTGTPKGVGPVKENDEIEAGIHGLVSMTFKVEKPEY
Test: Inhibition of wild-type recombinant N-terminal His6 and S-tagged full-length human FAHD1 expressed in Escherichia coli using oxaloacetate as substrate by photometric analysis

- IC50: 20 µM
SMILES: O=C([O-])C(=O)[O-].[Na+].[Na+] [SODIUM OXALATE]
